Assay results from patent US11254666B2, “Compound as GLS1 inhibitor” (MEDSHINE DISCOVERY INC., priority 2017, dated 2022).

Columns and labels:
GLS1 = biological target: T1, GLS1 (Homo sapiens, UniProt O94925); assay: Activity test of compounds in GLS1 coupling reaction system; type: biochemical; conditions: 2 nM GLS1, 4.5 mM L-glutamine, 1 hour pre-incubation at 23° C.
T1 sequence (O94925 55-669): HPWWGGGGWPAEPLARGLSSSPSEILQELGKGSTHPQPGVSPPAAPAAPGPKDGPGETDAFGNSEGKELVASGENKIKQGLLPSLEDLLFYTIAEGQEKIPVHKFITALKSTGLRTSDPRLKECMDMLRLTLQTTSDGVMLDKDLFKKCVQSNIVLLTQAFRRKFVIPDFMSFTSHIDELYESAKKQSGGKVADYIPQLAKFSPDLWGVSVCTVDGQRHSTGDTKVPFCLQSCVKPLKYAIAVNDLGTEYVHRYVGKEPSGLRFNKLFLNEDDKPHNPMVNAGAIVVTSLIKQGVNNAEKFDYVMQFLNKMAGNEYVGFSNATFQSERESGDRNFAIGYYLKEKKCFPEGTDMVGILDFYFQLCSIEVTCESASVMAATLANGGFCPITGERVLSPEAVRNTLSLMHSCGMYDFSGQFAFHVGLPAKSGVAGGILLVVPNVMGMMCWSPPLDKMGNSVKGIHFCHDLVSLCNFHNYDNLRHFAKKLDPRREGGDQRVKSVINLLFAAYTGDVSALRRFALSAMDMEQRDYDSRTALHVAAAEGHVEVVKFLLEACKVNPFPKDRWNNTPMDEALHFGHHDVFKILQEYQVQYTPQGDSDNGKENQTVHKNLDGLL
Description: Experimental Example 1: Activity Test of Compounds in GLS1 Coupling Reaction System
Preparation of Reaction Reagents: Relevant reagents should be prepared on the day of the experiment: Preparation of 1× assay buffer The final concentration of each component in the final experimental buffer was: 50 mM Tris-HCl pH 8.0, 0.25 mM EDTA, 150 mM K2HPO4, 0.1 mg/mL BSA, 1 mM DTT, 0.01% Triton X-100 Preparation of 2× experimental component solutions: The reagents were taken out and placed on ice to melt naturally for later use; 1× assay buffer was used to prepare “solution A” (solution A contains: L-glutamine, NAD+(nicotinamide adenine dinucleotide) and GLDH (glutamic acid dehydrogenase)). The final concentrations of each component in the final experimental reaction systemwere 4.5 mM L-glutamine, 2 mM NAD+ 4 U/mL GLDH. 1× assay buffer was used to prepare “solution B” - - - 2× enzyme solution (solution B contains GLS1 enzyme). The final concentration of GLS1 in the final experimental reaction system was 2 nM. Experimental Steps: The experiment plates are prepared by Labcyte ECHO before the experiment, which contain the compounds gradient concentrations and the corresponding DMSO solution: The experimental plates were taken out, and 20 μL of solution B (enzyme GLS1 solution) was added to columns 2 to 23 of the experimental plate, then 20 μL assay buffer was added to columns 1 and 24 as Min control in the experimental system. Then the experimental plates were centrifuged at 1000 rpm for 30 seconds; and sealed the membrane, and the plates were incubated at 23° C. for 1 hour. After the incubation of 1 hour, 20 μL of solution A was added to columns 1 to 24 of the experimental plates (ie, Samples were added to the whole plate). The experimental plates were centrifuged at 1000 rpm for 30 seconds. The experimental plates were placed on the SpectraMax 340PC, and the plates were continuously read for 20 minutes in dynamic mode (the reading interval was set to 1 minute).

[1] = Evaluation of compounds pharmacokinetics in mice; type: in vivo; conditions: mouse, plasma, female C57BL/6 mice
Description: Experimental Example 2: Evaluation of Compounds Pharmacokinetics
Experimental purpose: To test the pharmacokinetics of compounds in mice
C57BL/6 mice (female, 7-9 weeks old, Shanghai SLAC)
Experimental procedure: C57BL/6 mice (C57BL/6) were administered a clear solution obtained by dissolving test compounds via tail vein injection and intragastric administration (overnight fast, 7-9 weeks old). After administration of the test compounds, the intravenous group was at 0.0833, 0.25, 0.5, 1, 2, 4, 6, 8 and 24 h, and the gavage group was at 0.0833, 0.25, 0.5, 1, 2, 4, 6, 8 and 24, blood was collected from the mandibular vein and centrifuged to obtain plasma. LC-MS/MS method was used to determine blood drug concentration, and WinNonlin™ Version 6.3 pharmacokinetic software was used to calculate the relevant pharmacokinetic parameters by non-compartment model linear logarithmic trapezoid method.

IC50 (GLS1) [µM]	Structure (SMILES)	further results
0.2 to 1	O=C(Cc1cccnc1)Nc1nnc(NC2CCN(c3cccnn3)CC2)s1 [Example 5]	–
0.2 to 1	O=C(Cc1cc(Cl)ccc1Cl)Nc1nnc(NC2CCN(c3cccnn3)CC2)s1 [Example 7]	–
0.2 to 1	O=C(Cc1cc(Cl)ccc1F)Nc1nnc(NC2CCN(c3cccnn3)CC2)s1 [Example 8]	–
0.2 to 1	O=C(Cc1cc(OC(F)(F)F)ccc1F)Nc1nnc(NC2CCN(c3cccnn3)CC2)s1 [Example 9]	–
0.2 to 1	CO[C@H](C(=O)Nc1nnc(NC2CCN(c3cccnn3)CC2)s1)c1cccnc1 [Example 16]	–
< 0.2	CO[C@H](C(=O)Nc1nnc(NC2CCN(c3cccnn3)CC2)s1)c1cc(OC(F)(F)F)ccc1F [Example 17]	bioavailability ([1]; po, intragastric vs tail vein): 91.3%; half-life ([1]; po, tail vein injection and intragastric administration, route and dose not given, read-out: T1/2 (half-life) (converted)): 2.52 h; AUC(0-inf) ([1]; route and dose not given): 26.1 µM·h; Cmax ([1]; route and dose not given, read-out: Cmax (maximum concentration)): 11.6 µM
